The values that follow are results of earlier work, collected in patent US7998474B2, “Methods for treating an inflammatory disease of the bowel” (Rowett Research Institute, priority 2001, dated 2011).

In the data set the test system is Clostridium perfringens serotype A. Particulars: mouse, in vivo; cited from earlier work.

With Bacteroides thetaiotaomicron [BT], the “Resistance of ex-germ free mice to infection by Clostridium perfringens serotype A” value was “did not however increase the resistance”.
